{"source": "patent US6958231B2", "about": "“Variants of Erwinia-type creatinase” (Roche Diagnostics Operations, Inc., priority 2001, dated 2005)", "key": {"[1]": {"target": "T1, Erwinia sp. (DSM 97-934) creatinase variant CTsd7, F59W, N130D, M203V, I278T, F395L, SEQ ID NO: 22 (Shinella sumterensis, UniProt A0AA50CTE0, F395L/F59W/I278T/M203V/N130D)", "T1 construct": "variant CTsd7", "T1 sequence (A0AA50CTE0 1-404 F59W/N130D/M203V/I278T/F395L)": "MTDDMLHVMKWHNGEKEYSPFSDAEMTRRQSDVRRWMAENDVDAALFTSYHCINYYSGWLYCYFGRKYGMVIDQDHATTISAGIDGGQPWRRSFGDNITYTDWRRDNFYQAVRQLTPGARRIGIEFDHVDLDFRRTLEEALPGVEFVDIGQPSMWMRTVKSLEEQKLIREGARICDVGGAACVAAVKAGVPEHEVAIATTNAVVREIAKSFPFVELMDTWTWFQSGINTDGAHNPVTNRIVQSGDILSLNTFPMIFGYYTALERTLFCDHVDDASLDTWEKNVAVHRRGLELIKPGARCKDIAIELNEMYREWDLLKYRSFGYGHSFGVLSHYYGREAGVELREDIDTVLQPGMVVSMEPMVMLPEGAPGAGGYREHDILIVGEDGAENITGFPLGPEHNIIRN", "assay": "Km determination of creatinase variant with creatine (coupled enzymatic assay)", "type": "biochemical", "settings": "in words, CTsd7 vs wild type Erwinia creatinase", "description": "(§1) The activity assay for creatinase and its variants was performed by using creatine as substrate and a coupled enzymatic reaction according to Guder, W. G., et al., J Clin Chem Clin Biochem 24 (1986) 889-902.\n(§2) The reaction mixture was set up by combining the following reagents:\n(§3) The assay for creatinase was carried out at 25° C. and at the wavelength of 546 nm for 10 min. ΔE was calculated from the measurement points of 6 to 10 min.\n(§4) For KM determination, creatinase activity was determined according to the assay procedure described in Example 3 using six different concentrations of creatine substrate: 90 mM, 45 mM, 22.5 mM, 11.3 mM, 5.6 miM and 2.8 mM."}, "[2]": {"target": "T2, Erwinia sp. (DSM 97-934) creatinase variant CTsd2, N130D, M203V, I278T, F395L, SEQ ID NO: 20 (Shinella sumterensis, UniProt A0AA50CTE0, F395L/I278T/M203V/N130D)", "T2 construct": "variant CTsd2", "T2 sequence (A0AA50CTE0 1-404 N130D/M203V/I278T/F395L)": "T1 sequence (A0AA50CTE0 1-404 F59W/N130D/M203V/I278T/F395L) with W59F", "assay": "Km determination of creatinase variant with creatine (coupled enzymatic assay)", "type": "biochemical", "settings": "in words, CTsd2 vs wild type Erwinia creatinase", "description": "as §1, §2, §3, §4"}, "[3]": {"system": "creatinase from Pseudomonas putida", "settings": "in words; cited from earlier work"}}, "note": "Residue numbers refer to the chain shown, from its start."}
{"compound": "CN(CC(=O)O)C(=N)N", "note": "[creatine]", "values": [{"measurement": "Km value compared to wild type", "setting": "[1]", "result": "much lower"}, {"measurement": "Km value compared to wild type", "setting": "[2]", "result": "much lower"}, {"measurement": "Km value", "setting": "[3]", "result": "rather high"}]}
